Measurements published in ChEMBL document CHEMBL2440027, “Further SAR studies on bicyclic basic merbarone analogues as potent antiproliferative agents” (Bioorg Med Chem, 2013).

Experiments:
Format in all cases: functional
[1] = system: OVCAR-5; assay: Growth inhibition of human OVCAR5 cells assessed as cell growth at 10 uM after 48 hrs by sulforhodamine B assay relative to control; details: OVCAR-5, 48 h, read-out: Activity
[2] = system: UACC-62; assay: Growth inhibition of human UACC62 cells assessed as cell growth at 10 uM after 48 hrs by sulforhodamine B assay relative to control; details: UACC-62, 48 h, read-out: Activity
[3] = system: SNB-75; assay: Growth inhibition of human SNB75 cells assessed as cell growth at 10 uM after 48 hrs by sulforhodamine B assay relative to control; details: SNB-75, 48 h, read-out: Activity
[4] = system: SNB-19; assay: Growth inhibition of human SNB19 cells assessed as cell growth at 10 uM after 48 hrs by sulforhodamine B assay relative to control; details: SNB-19, 48 h, read-out: Activity
[5] = system: SF-268; assay: Growth inhibition of human SF268 cells assessed as cell growth at 10 uM after 48 hrs by sulforhodamine B assay relative to control; details: SF-268, 48 h, read-out: Activity
[6] = system: HCT-15; assay: Growth inhibition of human HCT15 cells assessed as cell growth at 10 uM after 48 hrs by sulforhodamine B assay relative to control; details: HCT-15, 48 h, read-out: Activity
[7] = Growth inhibition of human HCC2998 cells assessed as cell growth at 10 uM after 48 hrs by sulforhodamine B assay relative to control; details: HCC 2998, 48 h, read-out: Activity
[8] = system: NCI-H322M; assay: Growth inhibition of human NCI-H322M cells assessed as cell growth at 10 uM after 48 hrs by sulforhodamine B assay relative to control; details: read-out: Activity
[9] = system: NCI-H226; assay: Growth inhibition of human NCI-H226 cells assessed as cell growth at 10 uM after 48 hrs by sulforhodamine B assay relative to control; details: NCI-H226, 48 h, read-out: Activity
[10] = system: HOP-62; assay: Growth inhibition of human HOP62 cells assessed as cell growth at 10 uM after 48 hrs by sulforhodamine B assay relative to control; details: HOP-62, 48 h, read-out: Activity
[11] = system: SR; assay: Growth inhibition of human SR cells assessed as cell growth at 10 uM after 48 hrs by sulforhodamine B assay relative to control; details: read-out: Activity
[12] = system: CCRF-CEM; assay: Growth inhibition of human CCRF-CEM cells assessed as cell growth at 10 uM after 48 hrs by sulforhodamine B assay relative to control; details: read-out: Activity
[13] = system: MDA-MB-231; assay: Growth inhibition of human MDA-MB-231 cells after 48 hrs by sulforhodamine B assay; details: MDA-MB-231, 48 h; for CC50: read-out: LC50 (the source's name)
[14] = system: MCF7; assay: Growth inhibition of human MCF7 cells after 48 hrs by sulforhodamine B assay; details: MCF7, 48 h; for CC50: read-out: LC50 (the source's name)
[15] = system: UO-31; assay: Growth inhibition of human UO31 cells after 48 hrs by sulforhodamine B assay; details: UO-31, 48 h
[16] = system: TK-10; assay: Growth inhibition of human TK10 cells after 48 hrs by sulforhodamine B assay; details: TK-10, 48 h; for CC50: read-out: LC50 (the source's name)
[17] = system: SN12C; assay: Growth inhibition of human SN12C cells after 48 hrs by sulforhodamine B assay; details: for CC50: read-out: LC50 (the source's name)
[18] = system: CAKI-1; assay: Growth inhibition of human CAKI-1 cells after 48 hrs by sulforhodamine B assay; details: CAKI-1, 48 h
[19] = system: UACC-257; assay: Growth inhibition of human UACC257 cells after 48 hrs by sulforhodamine B assay; details: UACC-257, 48 h; for CC50: read-out: LC50 (the source's name)
[20] = system: SK-MEL-5; assay: Growth inhibition of human SK-MEL-5 cells after 48 hrs by sulforhodamine B assay; details: SK-MEL-5, 48 h
[21] = system: SK-MEL-2; assay: Growth inhibition of human SK-MEL-2 cells after 48 hrs by sulforhodamine B assay; details: SK-MEL-2, 48 h
[22] = system: SNB-75; assay: Growth inhibition of human SNB75 cells after 48 hrs by sulforhodamine B assay; details: SNB-75, 48 h
[23] = system: SF-268; assay: Growth inhibition of human SF268 cells after 48 hrs by sulforhodamine B assay; details: SF-268, 48 h
[24] = system: HT-29; assay: Growth inhibition of human HT-29 cells after 48 hrs by sulforhodamine B assay; details: HT-29, 48 h; for CC50: read-out: LC50 (the source's name)
[25] = system: NCI-H522; assay: Growth inhibition of human NCI-H522 cells after 48 hrs by sulforhodamine B assay; details: NCI-H522, 48 h; for CC50: read-out: LC50 (the source's name)
[26] = system: NCI-H226; assay: Growth inhibition of human NCI-H226 cells after 48 hrs by sulforhodamine B assay; details: NCI-H226, 48 h
[27] = system: HOP-92; assay: Growth inhibition of human HOP92 cells after 48 hrs by sulforhodamine B assay; details: HOP-92, 48 h
[28] = system: MOLT-4; assay: Growth inhibition of human MOLT4 cells after 48 hrs by sulforhodamine B assay; details: MOLT-4, 48 h
[29] = system: HL-60(TB); assay: Growth inhibition of human HL-60(TB) cells after 48 hrs by sulforhodamine B assay; details: HL-60, 48 h
[30] = system: DU-145; assay: Growth inhibition of human DU145 cells assessed as cell growth at 10 uM after 48 hrs by sulforhodamine B assay relative to control; details: DU-145, 48 h, read-out: Activity
[31] = system: PC-3; assay: Growth inhibition of human PC3 cells assessed as cell growth at 10 uM after 48 hrs by sulforhodamine B assay relative to control; details: PC-3, 48 h, read-out: Activity
[32] = system: UO-31; assay: Growth inhibition of human UO31 cells assessed as cell growth at 10 uM after 48 hrs by sulforhodamine B assay relative to control; details: UO-31, 48 h, read-out: Activity
[33] = system: SN12C; assay: Growth inhibition of human SN12C cells assessed as cell growth at 10 uM after 48 hrs by sulforhodamine B assay relative to control; details: read-out: Activity
[34] = system: RXF 393; assay: Growth inhibition of human RXF393 cells assessed as cell growth at 10 uM after 48 hrs by sulforhodamine B assay relative to control; details: RXF 393, 48 h, read-out: Activity

Compound `CN(C)CCNc1nc2c(c(=N)n1-c1ccccc1)c(=S)n(-c1ccccc1)c(=S)n2-c1ccccc1` has a growth at 10 µM [1] of 63.1%, a growth at 10 µM [2] of -90.3% and a growth at 10 µM [3] of 79%. The growth at 10 µM [4] was 26.1%, the growth at 10 µM [5] was 24% and the growth at 10 µM [6] was 18.8%. The growth at 10 µM [7] was -39.6%, the growth at 10 µM [8] was 58.5% and the growth at 10 µM [9] was 82.3%. The growth at 10 µM [10] was 6.19%, the growth at 10 µM [11] was 34.7% and the growth at 10 µM [12] was -8.26%. For the same compound, the GI50 [13] was 1.8 µM, the TGI [13] was 5.6 µM and the CC50 [13] was 24.7 µM. It also gave a GI50 [14] of 2.2 µM, a TGI [14] of 10.9 µM and a CC50 [14] of 48.8 µM. It also gave a GI50 [15] of 1.6 µM, an LC50 [15] of 9.6 µM and a TGI [15] of 3.9 µM. For the same compound, the GI50 [16] was 3.5 µM, the TGI [16] was 14.3 µM and the CC50 [16] was 48.8 µM. For the same compound, the GI50 [17] was 6.2 µM, the TGI [17] was 19.9 µM and the CC50 [17] was 48 µM. For the same compound, the GI50 [18] was 3.6 µM, the LC50 [18] was 72 µM and the TGI [18] was 17.6 µM. It also gave a GI50 [19] of 1.7 µM, a TGI [19] of 3.6 µM and a CC50 [19] of 7.5 µM. For the same compound, the GI50 [20] was 1.6 µM, the LC50 [20] was 6.1 µM and the TGI [20] was 3.1 µM. For the same compound, the GI50 [21] was 1.7 µM, the LC50 [21] was 6.7 µM and the TGI [21] was 3.4 µM. For the same compound, the GI50 [22] was 2.4 µM, the LC50 [22] was 31.9 µM and the TGI [22] was 7.5 µM. It also gave a GI50 [23] of 4.1 µM, an LC50 [23] of 45.6 µM and a TGI [23] of 15.3 µM. For the same compound, the GI50 [24] was 1.4 µM, the TGI [24] was 3.4 µM and the CC50 [24] was 8.3 µM. It also gave a GI50 [25] of 2.1 µM, a TGI [25] of 5.4 µM and a CC50 [25] of 27.6 µM. For the same compound, the GI50 [26] was 11.6 µM, the LC50 [26] was 59.5 µM and the TGI [26] was 26.3 µM. For the same compound, the GI50 [27] was 1.8 µM, the LC50 (concentration killing 50% of cells) [27] was 60.1 µM and the TGI [27] was 10.3 µM. For the same compound, the GI50 [28] was 1.8 µM, the LC50 [28] was 17.2 µM and the TGI [28] was 4.7 µM. For the same compound, the GI50 [29] was 1.5 µM, the LC50 [29] was 7.1 µM and the TGI [29] was 3.3 µM. It also gave a growth at 10 µM [30] of 45%, a growth at 10 µM [31] of 31% and a growth at 10 µM [32] of 3.1%. For the same compound, the growth at 10 µM [33] was 52.3% and the growth at 10 µM [34] was -39.1%.

For `CCCCN(CCCC)CCCNc1nc2c(c(=N)n1-c1ccccc1)c(=S)n(-c1ccccc1)c(=S)n2-c1ccccc1`, the growth at 10 µM [1] was -60.2%, the growth at 10 µM [2] was -99.4% and the growth at 10 µM [3] was -94.2%. It also gave a growth at 10 µM [4] of -87.4%, a growth at 10 µM [5] of -94% and a growth at 10 µM [6] of -73.3%. It also gave a growth at 10 µM [7] of -91.5%, a growth at 10 µM [8] of -57.8% and a growth at 10 µM [9] of -82.5%. It also gave a growth at 10 µM [10] of -99.5%, a growth at 10 µM [11] of -65.2% and a growth at 10 µM [12] of -78.4%. For the same compound, the GI50 [13] was 0.3 µM, the TGI [13] was 0.9 µM and the CC50 [13] was 3 µM. For the same compound, the GI50 [14] was 0.3 µM, the TGI [14] was 1.3 µM and the CC50 [14] was 3.6 µM. It also gave a GI50 [15] of 0.2 µM, an LC50 [15] of 1.1 µM and a TGI [15] of 0.5 µM. For the same compound, the GI50 [16] was 1.3 µM, the TGI [16] was 2.7 µM and the CC50 [16] was 5.6 µM. It also gave a GI50 [17] of 1.2 µM, a TGI [17] of 2.4 µM and a CC50 [17] of 4.9 µM. It also gave a GI50 [18] of 0.1 µM, an LC50 [18] of 3.1 µM and a TGI [18] of 0.8 µM. It also gave a GI50 [19] of 0.2 µM, a TGI [19] of 0.4 µM and a CC50 [19] of 0.9 µM. For the same compound, the GI50 [20] was 0.9 µM, the LC50 [20] was 4.6 µM and the TGI [20] was 2.1 µM. The GI50 [21] was 1.7 µM, the LC50 [21] was 6.9 µM and the TGI [21] was 3.5 µM. For the same compound, the GI50 [22] was 0.4 µM, the LC50 [22] was 4.1 µM and the TGI [22] was 1.6 µM. The GI50 [23] was 1 µM, the LC50 [23] was 4.7 µM and the TGI [23] was 2.2 µM. For the same compound, the GI50 [24] was 0.2 µM, the TGI [24] was 0.5 µM and the CC50 [24] was 1.8 µM. It also gave a GI50 [25] of 0.2 µM, a TGI [25] of 1.3 µM and a CC50 [25] of 5.1 µM. The GI50 [26] was 1.4 µM, the LC50 [26] was 5.5 µM and the TGI [26] was 2.8 µM. It also gave a GI50 [27] of 0.2 µM, an LC50 (concentration killing 50% of cells) [27] of 3.5 µM and a TGI [27] of 0.8 µM. The GI50 [28] was 0.3 µM, the GI50 [29] was 0.2 µM and the growth at 10 µM [30] was -100%. The growth at 10 µM [31] was -70.8%, the growth at 10 µM [32] was -80.9% and the growth at 10 µM [33] was -99.2%. For the same compound, the growth at 10 µM [34] was -67.7%.
